Reference: ChEMBL document CHEMBL5604062, “ASAP - ZIKV NS2B-NS3 protease fluorescence dose response” (2024)
“And” between values parts separate entries of the source, which are not always exact repeats. Identical values can stand only once.

Biological target: Nonstructural protein 3 (Zika virus, UniProt A0A024AXB9)
Experiment: Functional biochemical assay to identify treatments for viral infectious disease that targets Zika NS2B-NS3 protease. Utilizing a direct enzyme activity measurement method, reading the fluorescence intensity is used to characterize the relative potency of inhibitors as IC50.
Set-up: species or system PRVABC59

Nonstructural protein 3, sequence (A0A024AXB9 whole entry): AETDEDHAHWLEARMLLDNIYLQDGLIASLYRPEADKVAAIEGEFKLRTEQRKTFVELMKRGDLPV

Row | Compound | IC50
1 | NCc1cccc(NC(=O)[C@H](NC(=O)C2CCCCC2)c2ccc(OCc3ccccc3)cc2)c1 | 22.3 µM and 20 µM
2 | O=C(Nc1ccc2c(c1)CNC2)c1ccc2[nH]ccc2c1 | 1.67 µM and 2.5 µM
3 | O=C(Nc1cc(Cl)cc(C(=O)N[C@H](c2nn[nH]n2)C2CNC2)c1)OCc1ccccc1 | > 99.5 µM
4 | O=C(Nc1ccc2c(c1)CNC2)c1cc(Cl)cc(-n2cccc2)c1 | 0.091 µM and 0.084 µM
5 | CC(C)[C@H](NC(=O)c1cc(Cl)cc(NC(=O)OCc2ccccc2)c1)C(=O)O | > 99.5 µM
6 | COC1CN(C(=O)c2ccnc(NC(=O)c3cc(C4CC4)n(C)c3C)c2)C1 | > 25 µM
7 | CC(C)c1nn(-c2ccccc2)cc1C(=O)Nc1cccc(CN)c1 | > 99.5 µM
8 | O=C1Cc2c(cccc2C(=O)Nc2ccc(-c3cccnc3)cn2)N1 | > 25 µM
9 | NCCc1ccc(CNC(=O)[C@@H](NC(=O)OCc2ccccc2)c2ccc(OCc3ccccc3)cc2)cc1 | 16.3 µM and 13.9 µM
10 | CNC(=O)[C@H](Nc1cccc(N)n1)c1cc(Cl)cc(CNC(=O)OC(C)(C)C)c1 | > 99.5 µM
11 | N#C[C@H](Nc1ccc2c(c1)CNC2)c1cccc2[nH]ncc12 | 2.61 µM
12 | O=C1Cc2c(cc(Br)cc2C(=O)Nc2ccc3c(c2)CNC3)N1 | 0.021 µM and 0.02 µM
13 | CC(C)(C)OC(=O)Cn1ccnc(N2CC[C@@H](CO)C2)c1=O | > 99.5 µM
14 | O=C(Nc1ccc2c(c1)CNC2)c1cc(Cl)cc2[nH]c(-c3cc(C4CC4)[nH]n3)nc12 | 0.08 µM and 0.029 µM and 0.061 µM
15 | C[C@@H](Cc1c[nH]c2ccccc12)N1CCC(c2nc3ccccc3s2)CC1 | > 99.5 µM
16 | CCn1c(=O)c(N2CC[C@H](CO)C2)nc2cc(C(=O)N(C)C)ccc21 | > 99.5 µM
17 | NCc1cccc(NC(=O)c2cc(Cl)cc(Cl)c2)c1 | 5.55 µM
18 | c1coc(CSCc2nc(-c3nc[nH]n3)no2)c1 | > 99.5 µM
19 | O=C(Nc1ccc2c(c1)CNC2)c1ncnc2[nH]ccc12 | > 25 µM
20 | CCO[C@@H]1CC[C@H]1NC(=O)c1cccc2c1CC(=O)N2 | > 25 µM
21 | O=Cc1ccc(N2CCC(C(=O)NCc3cccc(-c4ccccc4)c3)CC2)cc1 | > 99.9 µM
22 | CCOC(=O)c1[nH]c(C)c(C(=O)Nc2cccc(CN)c2)c1CC | > 99.5 µM
23 | N[C@H]1C[C@H](CNC(=O)[C@@H](NC(=O)OCc2ccccc2)c2ccc(OCc3ccccc3)cc2)C1 | > 99.5 µM
24 | COC(=O)c1cc2c(cc1NC(=O)c1cc(F)cc3[nH]ncc13)CNC2 | 0.05 µM and 0.029 µM
25 | O=C1OCc2ccc(NC(=O)[C@H]3CNCc4[nH]ncc43)cc21 | > 25 µM
26 | O=C(Nc1ccc2c(c1)CNC2)c1cc(Cl)cc2[nH]c(C3(n4ccnn4)CC3)nc12 | 0.765 µM

Row | Compound | IC50
27 | O=C(N[C@@H](C(=O)Nc1cccnc1)c1ccc(OCc2ccccc2)cc1)OCc1ccccc1 | > 99.5 µM
28 | O=C(Cc1cccc2[nH]ncc12)Nc1ccc2c(c1)CNC2 | > 25 µM
29 | NCCc1cc(Cl)cc(C(=O)Nc2cccc(CN)c2)c1 | 0.33 µM
30 | O=C(Nc1cc(Cl)cc(C(=O)Nc2cccc3c2CNC3)c1)OCc1ccccc1 | 75.6 µM
31 | O=C1Cc2c(cccc2C(=O)NC2CCN(c3nccs3)CC2)N1 | > 25 µM
32 | NCc1cccc(NC(=O)c2cc(Br)cc3[nH]ccc23)c1 | 4.73 µM
33 | NCc1cc(NC(=O)c2cc(Cl)cc(NC(=O)OCc3ccccc3)c2)cc(-c2csc(CC(=O)O)c2)c1 | 15 µM
34 | CC(C)N1CCc2nc(NC(=O)[C@H](NC(=O)OCc3ccccc3)c3ccc(OCc4ccccc4)cc3)sc2C1 | > 99.5 µM
35 | O=C(NCCOCC1CC1)[C@H](Nc1ccc2c(c1)CNC2)c1cc(Cl)cc(C2CC2)c1 | 0.079 µM and 0.05 µM
36 | O=C(Nc1ccc2c(c1)CNC2)c1cc(Cl)ccc1-n1cncn1 | 0.876 µM
37 | Cn1cncc1COc1cccc([C@H](NC(=O)OCc2ccccc2)C(=O)Nc2cccc(CN)c2)c1 | 32.6 µM
38 | NCc1cc(CCc2cc(Cl)cc(NC(=O)OCc3ccccc3)c2)cc(C(=O)O)c1 | > 99.5 µM
39 | CC(C)Cn1cc2c(C(=O)Nc3ccc4c(c3)CNC4)cc(Cl)cc2n1 | 0.269 µM
40 | O=C(N[C@@H](C(=O)NC1CCCCC1)c1ccc(OCc2ccccc2)cc1)OCc1ccccc1 | > 99.5 µM
41 | Cc1cc(C)cc(C(=O)N2CCC(NS(=O)(=O)c3ccc(Cl)cc3C(=O)O)CC2)c1 | > 99.5 µM
42 | NCc1cccc(NC(=O)c2nn(-c3ccccc3F)cc2Br)c1 | > 99.5 µM
43 | C[C@H]1C[C@H]1c1cc(C(=O)Nc2cc(-c3cccnc3)ccn2)no1 | > 25 µM
44 | O=C1CN(Cc2c[nH]c3ccccc23)CCN1c1cccnc1 | > 99.5 µM
45 | Cc1oc(C2CC2)nc1C(=O)Nc1cc(-c2cccnc2)ccn1 | > 25 µM
46 | O=C(NC[C@H]1CCCO1)[C@H](Nc1ccc2c(c1)CNC2)c1cc(Cl)cc2[nH]ncc12 | 0.111 µM
47 | O=C(Nc1ccc2c(c1)CNC2)c1cc(Cl)cc2cc[nH]c12 | 0.07 µM and 0.065 µM
48 | O=C(O)c1cc2cccc(Cc3c[nH]c4ccc(Cl)cc34)c2[nH]1 | > 99.5 µM
49 | O=C(Nc1cc(Cl)cc(C(=O)Nc2cccc(C(=O)O)c2)c1)OCc1ccccc1 | 84 µM
50 | Nc1ccc(NC(=O)c2cc(Cl)cc3[nH]ncc23)cn1 | > 99.5 µM
51 | O=C(Nc1ccc2c(c1)CNC2)c1cc(F)cc(-c2cccnc2)c1 | 0.09 µM and 0.087 µM
52 | c1ccc2c(CN3CCC(c4c[nH]c5ncccc45)CC3)c[nH]c2c1 | 33.9 µM

Row | Compound | IC50
53 | N#C[C@H](Nc1ccc2c(c1)CNC2)c1cccc2c1CCNC2=O | 22.4 µM
54 | CNC(=O)[C@H](Nc1cccc(-c2nn[nH]n2)c1)c1cc(Cl)cc(NC(=O)OCc2ccccc2)c1 | > 99.5 µM
55 | CCn1c(=O)c(N2CC[C@]3(CNC(=O)O3)C2)nc2ccccc21 | > 99.5 µM
56 | O=C(c1cc(Cl)cc2[nH]ncc12)N1CC[C@]2(CCNC2)C1 | > 99.5 µM
57 | O=C(O)c1cc(Cl)ccc1S(=O)(=O)N[C@H]1CC[C@H]2CN(Cc3ccccc3)C[C@H]2C1 | > 99.5 µM
58 | N#Cc1cccc(-c2nc3c(C(=O)Nc4ccc5c(c4)CNC5)cc(F)cc3[nH]2)c1 | 33 nM (2×) and 13 nM
59 | O=C1CCCc2cc(C(=O)Nc3ccc4c(c3)CNC4)ccc2N1 | > 25 µM
60 | COc1ccc(CN2Cc3cc(NC(=O)c4cc(Cl)cc5[nH]ncc45)cc(Br)c3C2)cc1 | 9.89 µM
61 | CCn1ccnc(N2CC[C@H](c3ccncc3)C2)c1=O | > 99.5 µM
62 | CC[C@H](Cc1nnn[nH]1)c1ccc(NC(=O)c2cc(Cl)cc(SC)c2)cc1 | > 99.5 µM
63 | CCCn1cc(-c2cc(Cl)cc(NC(=O)OCc3ccccc3)c2)c(C(=O)O)n1 | > 99.5 µM
64 | CNC(=O)[C@H](Nc1ccc2c(c1)CNC2)c1cc(Cl)cc2[nH]c(-c3ccccc3)nc12 | 0.029 µM and 0.013 µM
65 | NCc1cccc(NC(=O)[C@H](NC(=O)OCc2ccccc2)c2cccc(-c3ccnc(N)c3)c2)c1 | 48.1 µM
66 | c1ccc(OC2CCN(Cc3c[nH]c4ccccc34)CC2)cc1 | > 99.5 µM
67 | COc1ccc(NS(=O)(=O)c2ccc(Cl)cc2C(=O)O)cc1-n1nnnc1C | > 99.5 µM
68 | O=C(Nc1ccc2c(c1)CNC2)c1cccc2c1[C@]1(CCN(C(=O)OCc3ccccc3)C1)C(=O)N2 | 0.243 µM
69 | FC(F)(F)c1nnc(COc2cncnc2)s1 | > 99.5 µM
70 | NC[C@H]1CC[C@H](NC(=O)c2cc(Cl)cc3[nH]ncc23)CC1 | 20.1 µM
71 | N[C@@H](CCO)c1cccc(NC(=O)c2cc(Cl)cc(NC(=O)OCc3ccccc3)c2)c1 | 39.7 µM
72 | CCn1c(=O)c(N2CC[C@]3(CCCN(C)C3)C2)nc2ccccc21 | > 99.5 µM
73 | O=C(O)c1cc(Cl)ccc1S(=O)(=O)N[C@H]1CCn2c(nnc2C(F)(F)F)C1 | > 99.5 µM
74 | CS(=O)(=O)NC(=O)c1cc(CN)cc([C@@H]2C[C@H]2c2cc(Cl)cc(NC(=O)OCc3ccccc3)c2)c1 | > 99.5 µM
75 | Cc1c(C(=O)Nc2cc(Br)c3c(c2)COC3)cc(C2CC2)n1C | > 25 µM
76 | COc1ccc(COc2ccc([C@H](NC(=O)OCc3ccccc3)C(=O)Nc3cccc(CN)c3)cc2)cn1 | 38.8 µM
77 | CCn1cc(-c2cccc(OC)c2F)nc(N2CC[C@@H](CO)C2)c1=O | > 99.5 µM
78 | CC(C)c1cc(-c2ccc3[nH]c(C(=O)O)cc3c2)cc(S(N)(=O)=O)c1 | > 99.5 µM

Row | Compound | IC50
79 | CCn1cc(-c2ccc([C@@H](NC(=O)OCc3ccccc3)C(=O)Nc3cccc(CN)c3)cc2)cn1 | 97.2 µM
80 | O=C(Nc1cc(Cl)cc(C(=O)NC2([C@H]3CCNC3)CC2)c1)OCc1ccccc1 | > 99.5 µM
81 | CN1Cc2cc(NC(=O)c3cc(Cl)cc4[nH]ncc34)ccc2C1(C)C | 7.29 µM
82 | N#Cc1cc(NC(=O)OCc2ccccc2)cc(C(=O)Nc2cccc(CN)c2)c1 | 15.4 µM
83 | N#C[C@H](Nc1cc(Cl)cc(NC(=O)OCc2ccccc2)c1)c1ccc(-c2nn[nH]n2)cc1 | 16.8 µM
84 | O=C(Nc1ccc(Cl)cc1C(=O)Nc1cccc(C2CCNCC2)c1)OCc1ccccc1 | > 99.5 µM
85 | O=C(Nc1cc(-c2cccnc2)ccn1)c1cc2n(n1)CCS2(=O)=O | > 25 µM
86 | Cn1c(Sc2nc3ccccc3o2)nc2sccc2c1=O | > 99.5 µM
87 | Cc1n[nH]c2cc(C(=O)N3CCC(C)(NC(=O)[C@H]4C[C@H](N(C)C)C4)CC3)ccc12 | > 99.5 µM
88 | NCC1(NC(=O)[C@H](NC(=O)OCc2ccccc2)c2ccc(OCc3ccccc3)cc2)CCCCC1 | 58.5 µM
89 | NC[C@H]1C[C@@H](NC(=O)[C@@H](NC(=O)OCc2ccccc2)c2ccc(OCc3ccccc3)cc2)C1 | 85.2 µM
90 | NCc1cccc(NC(=O)[C@@H](NS(=O)(=O)C[C@H]2CCCCO2)c2ccc(OCc3ccccc3)cc2)c1 | > 99.5 µM
91 | O=C(Nc1ccc2c(c1)CNC2)c1ncc(Br)s1 | 61.7 µM
92 | CN(C)Cc1csc(NC(=O)[C@@H](NC(=O)OCc2ccccc2)c2ccc(OCc3ccccc3)cc2)n1 | > 99.5 µM
93 | O=C(Nc1ccc2c(c1)C[C@H](O)C2)c1cc(Cl)cc2[nH]ncc12 | > 99.5 µM
94 | O=C(N[C@@H](C(=O)Nc1n[nH]c2c1CNC21CC1)c1ccc(OCc2ccccc2)cc1)OCc1ccccc1 | > 99.5 µM
95 | Cn1cc(-c2ccc([C@@H](NC(=O)OCc3ccccc3)C(=O)Nc3cccc(CN)c3)cc2)cn1 | > 99.5 µM
96 | COc1ncccc1S(=O)(=O)N[C@H](C(=O)Nc1cccc(CN)c1)c1ccc(OCc2ccccc2)cc1 | > 99.5 µM
97 | O=C(Nc1cc(-c2cccnc2)ccn1)c1cn2c(n1)CCC2 | > 25 µM
98 | CNC(=O)c1ccnc(NC(=O)c2cc(C3CC3)n(C)c2C)c1 | > 25 µM
99 | Cc1cc(NS(=O)(=O)c2ccc(Cl)cc2C(=O)O)nn1Cc1ccccc1 | > 99.5 µM
100 | C=CC[C@H](Nc1ccc2c(c1)CNC2)c1cc(Cl)cc2[nH]ncc12 | 7.93 µM
101 | Cc1c(C(=O)Nc2cccc(CCN)c2)cc(C2CC2)n1C | 88.3 µM
102 | C[C@@]1(c2cc(Cl)cc(NC(=O)OCc3ccccc3)c2)C[C@H]1c1cccc(CN)c1 | 19.5 µM
